Our source for the TGI values is PubChem BioAssay (NCI).

Experiment in all cases: NCI anticancer screen, dose series, 48 h
In experiment [1] the test system is ACHN renal.
The test system of experiment [2] is U251 CNS.
The subject of experiment [3] is KM12 colon.
In experiment [4] the test system is OVCAR-4 ovarian.
For experiment [5], the system named is MDA-MB-435.
Experiment [6] relates to UACC-62 melanoma.
Experiment [7] concerns EKVX NSCLC.
In experiment [8] the test system is SNB-19 CNS.
Experiment [9] deals with NCI-H226 lung.
Experiment [10] deals with HOP-92 NSCLC.

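Tested at 5 concentrations; 48 h exposure; 96-well plates; endpoints linearly interpolated, else capped at highest concentration. TGI denotes the concentration required for complete inhibition of growth.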

`CC(C)(C)c1cc(/C=C/C(=O)CC(=O)/C=C/c2cc(C(C)(C)C)c(O)c(C(C)(C)C)c2)cc(C(C)(C)C)c1O`: the TGI in experiment [1], in experiment [2], in experiment [3], in experiment [4], in experiment [5] and in experiment [6] was above 50 µM each time. Further, the TGI in experiment [7], in experiment [8] and in experiment [9] was above 50 µM in each case.
For `CC1=Nc2c(C#N)ncn2N=C(C)C1`, the TGI in [1], in experiment [2], in experiment [10], in experiment [3], in experiment [4] and in [5] was above 100 µM in each case. Also, the TGI in [6] and in [9] was above 100 µM throughout.
In the case of `COc1c(-c2cccs2)oc2c(CC(=O)O)cccc2c1=O`, the TGI in experiment [2], in experiment [5], in experiment [6] and in [7] was above 100 µM throughout.
Take `c1ccc(CCN2CCN=C2Cc2ccccc2)cc1`: the TGI is above 100 µM in experiment [1]; above 100 µM in experiment [2]; 93.8 µM in experiment [10]; above 100 µM in experiment [3]; above 100 µM in experiment [4]; above 100 µM in experiment [6]. Moreover, the TGI in experiment [7], in experiment [8] and in [9] was above 100 µM in each case.
Take `N#CCOc1cccc(C2(N3CC=CCC3)CCCCC2)c1`: the TGI in [1], in experiment [2], in experiment [3], in experiment [4], in experiment [5] and in experiment [6] was above 100 µM throughout. The TGI in experiment [7], in [8] and in experiment [9] was above 100 µM each time.
For the compound `Clc1cc(OCC23CC4CC(CC(C4)C2)C3)nc(OCC23CC4CC(CC(C4)C2)C3)n1`, the TGI in [1], in experiment [2], in experiment [3], in [4], in experiment [5] and in [6] was above 100 µM throughout. Also, the TGI in [7] and in experiment [8] was above 100 µM in each case.
In the case of `COC(=O)c1c(O)ccc2c1c1c(n2Cc2ccccc2OC)C(=O)c2ccccc2C1`, the TGI in [2] is above 100 µM; in [3] it was above 100 µM; in experiment [4], 87.9 µM; in experiment [5], above 100 µM; in experiment [6], above 100 µM; in [8], above 100 µM. Besides, in [9], the TGI is above 100 µM.
Regarding `Cc1nc2c(Cl)cc(Cl)cc2c(Cl)c1CCCl`, the TGI in experiment [1], in [2], in experiment [3], in experiment [5], in experiment [6] and in experiment [7] was above 100 µM each time. Moreover, the TGI in experiment [8] and in experiment [9] was above 100 µM throughout.
`CC1(C)O[C@H]2OC(CO)C(OS(C)(=O)=O)[C@H]2O1` (stereo partly drawn): the TGI in experiment [1], in experiment [2], in experiment [10], in experiment [3], in [5] and in experiment [6] was above 100 µM in each case. The TGI in [7] and in [8] was above 100 µM each time.
As to `CC(=O)Nc1ccc(-c2nnc(SCC(=O)Nc3cccc([N+](=O)[O-])c3)o2)cc1`, the TGI in experiment [1] is 43.7 µM; in experiment [2], 29.3 µM; in [10], 35.3 µM; in experiment [3], 39.4 µM; in experiment [4], 25.3 µM; in experiment [6], 23.7 µM. Moreover, in [9], the TGI is 23.6 µM.
`COc1cc(/C=C2\N=C(C)N(n3c(-c4ccccc4)nc4ccccc4c3=O)C2=O)cc(OC)c1OC`: the TGI in [1], in experiment [3], in experiment [5], in experiment [6], in experiment [7] and in experiment [8] was above 100 µM each time. Moreover, the TGI in experiment [9] was above 100 µM.
As for `CO[C@H]1C[C@H](n2cc(C)c(=O)[nH]c2=O)O[C@@H]1CO`, the TGI in experiment [1], in [2], in experiment [3], in [4], in experiment [5] and in [6] was above 100 µM in each case. Moreover, the TGI in [7], in experiment [8] and in experiment [9] was above 100 µM each time.
For the compound `Cc1cc2c(c(C(=O)NCCC(=O)N[C@@H](C)C(=O)OCc3ccccc3)c1)Oc1c(cc(C)cc1C(=O)NCCC(=O)N[C@@H](C)C(=O)OCc1ccccc1)S2`, the TGI in experiment [1], in experiment [2], in [3], in [4], in [5] and in experiment [6] was above 100 µM throughout. In addition, the TGI in experiment [7], in [8] and in experiment [9] was above 100 µM each time.
For `CCCCNC(=S)c1ccc(OC(=O)Nc2ccc(Cl)cc2)cc1`, the TGI in [1] is above 100 µM; in experiment [2], above 100 µM; in experiment [3], above 100 µM; in experiment [4], above 100 µM; in experiment [5], above 100 µM; in experiment [6] it was 93.6 µM. In addition, the TGI in [7] and in [8] was above 100 µM throughout.
Regarding `COc1cc2cc3c4c(cc(OC)c(OC)c4c2cc1OC)CCN3C(=O)N(C)C`, the TGI in experiment [1], in experiment [2], in [10], in experiment [3], in experiment [4] and in experiment [6] was above 100 µM in each case. Also, the TGI in experiment [7], in experiment [8] and in experiment [9] was above 100 µM in each case.
Take `S=c1nc2sc3c(c2c(Nc2ccc(Br)cc2)[nH]1)CCN(N1CCc2c(sc4nc(=S)[nH]c(Nc5ccc(Br)cc5)c24)C1)C3`: the TGI is above 50 µM in experiment [1]; 19 µM in experiment [2]; above 50 µM in [3]; above 50 µM in experiment [4]; above 50 µM in experiment [5]; above 50 µM in experiment [6]. The TGI in [7], in experiment [8] and in experiment [9] was above 50 µM throughout.
